Source: PMC10287566, “Signaling-specific inhibition of the CB1 receptor for cannabis use disorder: phase 1 and phase 2a randomized trials” (Nature Medicine, 2023)

Experiments:
[1] = target: T1, hCB1 point mutant p.E1.49G (Homo sapiens, UniProt P21554, E133G); assay: THC-induced decrease in cellular respiration, HEK293 cells with mutant hCB1; format: cell-based; details: HEK293, hCB1 p.E1.49G, THC 1 µM
T1 construct: expressed in transfected cells; host or cells: HEK293
Description: After 15 min of incubation, THC (1 µM, dissolved in ethanol 0.0034%) or vehicle was added in the culture dishes for 30 min.
Cellular respiration was measured in a calibrated oxygraph (Oxygraph-2k, Oroboros Instruments) equipped with a Clark electrode and DatLab software. Oxygen consumption (OC) rate was used to measure cellular respiration.

[2] = target: T2, hERG (human ether-a-go-go-related gene) (Homo sapiens, UniProt Q12809); assay: hERG tail current in transfected HEK293 cells (GLP); format: cell-based; details: GLP safety pharmacology
T2 construct: expressed in transfected cells; host or cells: HEK293 (stably transfected)
T2 sequence (Q12809 whole entry): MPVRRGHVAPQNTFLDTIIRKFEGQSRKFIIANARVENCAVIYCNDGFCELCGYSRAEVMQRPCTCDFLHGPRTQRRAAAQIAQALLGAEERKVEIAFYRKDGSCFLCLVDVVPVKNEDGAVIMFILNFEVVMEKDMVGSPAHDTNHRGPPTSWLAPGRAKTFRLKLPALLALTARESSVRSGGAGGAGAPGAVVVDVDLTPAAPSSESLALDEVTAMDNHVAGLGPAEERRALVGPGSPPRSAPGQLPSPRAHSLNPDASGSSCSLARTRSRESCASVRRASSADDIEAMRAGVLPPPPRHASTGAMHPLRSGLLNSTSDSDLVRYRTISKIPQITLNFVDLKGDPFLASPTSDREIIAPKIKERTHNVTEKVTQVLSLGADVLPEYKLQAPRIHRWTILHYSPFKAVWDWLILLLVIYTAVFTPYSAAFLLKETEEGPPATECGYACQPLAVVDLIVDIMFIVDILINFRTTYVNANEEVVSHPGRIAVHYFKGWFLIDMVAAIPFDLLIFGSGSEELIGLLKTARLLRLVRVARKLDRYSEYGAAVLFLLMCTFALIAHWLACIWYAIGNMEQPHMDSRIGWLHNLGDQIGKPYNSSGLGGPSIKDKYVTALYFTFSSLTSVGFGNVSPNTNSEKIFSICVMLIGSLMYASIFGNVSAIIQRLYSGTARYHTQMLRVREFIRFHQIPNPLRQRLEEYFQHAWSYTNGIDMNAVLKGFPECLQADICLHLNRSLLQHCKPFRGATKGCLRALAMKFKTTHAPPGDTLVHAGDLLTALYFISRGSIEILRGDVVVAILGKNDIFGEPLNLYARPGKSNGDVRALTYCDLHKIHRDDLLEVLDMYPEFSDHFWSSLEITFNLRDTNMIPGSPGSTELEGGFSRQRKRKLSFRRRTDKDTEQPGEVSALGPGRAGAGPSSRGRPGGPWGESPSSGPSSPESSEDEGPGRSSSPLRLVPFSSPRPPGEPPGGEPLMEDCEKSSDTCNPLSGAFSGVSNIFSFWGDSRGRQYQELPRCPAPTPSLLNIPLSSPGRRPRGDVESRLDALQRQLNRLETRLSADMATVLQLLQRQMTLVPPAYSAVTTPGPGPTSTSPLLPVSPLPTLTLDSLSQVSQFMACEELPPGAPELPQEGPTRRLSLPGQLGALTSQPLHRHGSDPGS
Description: Cells were clamped to −80 mV, depolarized to 0 mV for 5 s allowing activation of hERG current and repolarized to −50 mV for 5 s allowing hERG tail current to deactivate. This experimental procedure was repeated at a frequency of 0.06 Hz. Currents were filtered at 1 kHz and acquired at the frequency of 2 kHz. Amplitude of hERG tail current was measured during the repolarizing pulse from 0 to −50 mV. […] Currents were measured before and after exposure to the test compound. The individual data were collected using pClamp software (release 8.2, AXON Instruments, Molecular Devices).

volunteers with CUD = assay: Phase 2a study, safety; format: in vivo, human
Source text: Data from the first dose level were reviewed by the Data Safety Monitoring Board before ascending to the next dose level.
On day 6 of each period, before discharge from the research center, participants had sitting blood pressure and pulse rate measurements, clinical laboratory tests (chemistry, hematology and urinalysis) and body weight taken. The study start date was 23 October 2018; primary completion date was 31 July 2020; and actual study completion date was 1 January 2021. After the second study phase, participants were contacted 28 d after discharge so that we could inquire about the occurrence of any serious AEs (including pregnancies) that may have occurred since leaving the research site.

dogs = assay: 91-d repeated oral toxicity study in dogs (GLP); format: in vivo
[3] = 91-d repeated oral toxicity study in dogs (GLP); format: in vivo; details: both sexes, Beagle, dog, in vivo
[4] = end of drug withdrawal period (week 18)

T1 sequence (P21554 whole entry E133G): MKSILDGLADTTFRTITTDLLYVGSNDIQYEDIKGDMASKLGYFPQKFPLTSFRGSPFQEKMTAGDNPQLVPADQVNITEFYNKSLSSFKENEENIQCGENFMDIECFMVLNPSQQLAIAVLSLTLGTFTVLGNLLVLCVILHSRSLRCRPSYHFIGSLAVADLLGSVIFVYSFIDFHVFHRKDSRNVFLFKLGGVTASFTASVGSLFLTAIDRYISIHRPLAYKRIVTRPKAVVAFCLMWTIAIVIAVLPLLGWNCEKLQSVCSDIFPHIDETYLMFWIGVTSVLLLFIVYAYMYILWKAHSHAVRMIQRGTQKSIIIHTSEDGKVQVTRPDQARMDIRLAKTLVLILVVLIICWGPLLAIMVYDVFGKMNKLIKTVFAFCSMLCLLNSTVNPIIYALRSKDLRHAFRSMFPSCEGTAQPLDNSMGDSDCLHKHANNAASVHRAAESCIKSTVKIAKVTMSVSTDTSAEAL

With `COc1ccc(CO[C@H]2CC[C@@]3(C)C(=CC[C@H]4[C@@H]5CC[C@H](C(C)=O)[C@@]5(C)CC[C@@H]43)C2)cc1` [AEF0117, 3β-(4-methoxybenzyloxy)pregn-5-en-20-one] the “effect on cellular respiration with mutant hCB1” value [1] was “loss of effect”, the “adverse effects on hERG tail current” value [2] was “did not show any adverse effects” and the “Number of TEAEs” value (volunteers with CUD; 0.06 mg/d 5 d) was 9 E. The “Number of participants with a TEAE leading to discontinuation” value (volunteers with CUD; 0.06 mg/d 5 d) was 0 n (%), the “Number of participants with an SAE” value (volunteers with CUD; 0.06 mg/d 5 d) was 0 n (%) and the “Number of participants with at least one TEAE” value (volunteers with CUD; 0.06 mg/d 5 d) was 6 (42.9) n (%). The “Participants with TEAE: Mild” value (volunteers with CUD; 0.06 mg/d 5 d) was 6 (42.9) n (%), the “Participants with TEAE: Moderate” value (volunteers with CUD; 0.06 mg/d 5 d) was 0 n (%) and the “Participants with TEAE: Not related” value (volunteers with CUD; 0.06 mg/d 5 d) was 2 (14.3) n (%). For the same molecule, the “Participants with TEAE: Related” value (volunteers with CUD; 0.06 mg/d 5 d) was 6 (42.9) n (%), the “Participants with TEAE: Severe” value (volunteers with CUD; 0.06 mg/d 5 d) was 0 n (%) and the “TEAEs by SOC: Cardiac disorders” value (volunteers with CUD; 0.06 mg/d 5 d) was 1 (7.1) n (%). For the same molecule, the “TEAEs by SOC: Ear and labyrinth disorders” value (volunteers with CUD; 0.06 mg/d 5 d) was 0 n (%), the “TEAEs by SOC: Gastrointestinal disorders” value (volunteers with CUD; 0.06 mg/d 5 d) was 0 n (%) and the “TEAEs by SOC: General disorders and administration site conditions” value (volunteers with CUD; 0.06 mg/d 5 d) was 1 (7.1) n (%). The “TEAEs by SOC: Infections and infestations” value (volunteers with CUD; 0.06 mg/d 5 d) was 0 n (%), the “TEAEs by SOC: Injury, poisoning and procedural complications” value (volunteers with CUD; 0.06 mg/d 5 d) was 0 n (%) and the “TEAEs by SOC: Investigations” value (volunteers with CUD; 0.06 mg/d 5 d) was 3 (21.4) n (%). For the same molecule, the “TEAEs by SOC: Musculoskeletal and connective tissue disorders” value (volunteers with CUD; 0.06 mg/d 5 d) was 0 n (%), the “TEAEs by SOC: Nervous system disorders” value (volunteers with CUD; 0.06 mg/d 5 d) was 3 (21.4) n (%) and the “TEAEs by SOC: Psychiatric disorders” value (volunteers with CUD; 0.06 mg/d 5 d) was 0 n (%). The “TEAEs by SOC: Renal and urinary disorders” value (volunteers with CUD; 0.06 mg/d 5 d) was 0 n (%), the “TEAEs by SOC: Respiratory, thoracic and mediastinal disorders” value (volunteers with CUD; 0.06 mg/d 5 d) was 1 (7.1) n (%) and the “TEAEs by SOC: Skin and subcutaneous tissue disorders” value (volunteers with CUD; 0.06 mg/d 5 d) was 0 n (%). The “Number of TEAEs” value (volunteers with CUD; 1 mg/d 5 d) was 24 E, the “Number of participants with a TEAE leading to discontinuation” value (volunteers with CUD; 1 mg/d 5 d) was 1 (6.7) n (%) and the “Number of participants with an SAE” value (volunteers with CUD; 1 mg/d 5 d) was 0 n (%). The “Number of participants with at least one TEAE” value (volunteers with CUD; 1 mg/d 5 d) was 8 (53.3) n (%), the “Participants with TEAE: Mild” value (volunteers with CUD; 1 mg/d 5 d) was 8 (53.3) n (%) and the “Participants with TEAE: Moderate” value (volunteers with CUD; 1 mg/d 5 d) was 1 (6.7) n (%). For the same molecule, the “Participants with TEAE: Not related” value (volunteers with CUD; 1 mg/d 5 d) was 1 (6.7) n (%), the “Participants with TEAE: Related” value (volunteers with CUD; 1 mg/d 5 d) was 8 (53.3) n (%) and the “Participants with TEAE: Severe” value (volunteers with CUD; 1 mg/d 5 d) was 1 (6.7) n (%). The “TEAEs by SOC: Cardiac disorders” value (volunteers with CUD; 1 mg/d 5 d) was 0 n (%), the “TEAEs by SOC: Ear and labyrinth disorders” value (volunteers with CUD; 1 mg/d 5 d) was 0 n (%) and the “TEAEs by SOC: Gastrointestinal disorders” value (volunteers with CUD; 1 mg/d 5 d) was 4 (26.7) n (%). The “TEAEs by SOC: General disorders and administration site conditions” value (volunteers with CUD; 1 mg/d 5 d) was 0 n (%), the “TEAEs by SOC: Infections and infestations” value (volunteers with CUD; 1 mg/d 5 d) was 0 n (%) and the “TEAEs by SOC: Injury, poisoning and procedural complications” value (volunteers with CUD; 1 mg/d 5 d) was 2 (13.3) n (%). The “TEAEs by SOC: Investigations” value (volunteers with CUD; 1 mg/d 5 d) was 2 (13.3) n (%), the “TEAEs by SOC: Musculoskeletal and connective tissue disorders” value (volunteers with CUD; 1 mg/d 5 d) was 2 (13.3) n (%) and the “TEAEs by SOC: Nervous system disorders” value (volunteers with CUD; 1 mg/d 5 d) was 3 (20.0) n (%). The “TEAEs by SOC: Psychiatric disorders” value (volunteers with CUD; 1 mg/d 5 d) was 2 (13.3) n (%), the “TEAEs by SOC: Renal and urinary disorders” value (volunteers with CUD; 1 mg/d 5 d) was 0 n (%) and the “TEAEs by SOC: Respiratory, thoracic and mediastinal disorders” value (volunteers with CUD; 1 mg/d 5 d) was 0 n (%). For the same molecule, the “TEAEs by SOC: Skin and subcutaneous tissue disorders” value (volunteers with CUD; 1 mg/d 5 d) was 1 (6.7) n (%), the “change in eosinophil count” value (dogs; all dose groups, week 5) was -41% and the “change in eosinophil count” value (dogs; all dose groups, week 14) was -54%. The “change in lymphocyte count” value (dogs; all dose groups, week 14) was -17 to -24%, the “change in eosinophil count” value (dogs; [4]) was -66% and the “change in lymphocyte count” value (dogs; [4]) was -19%. For the same molecule, the “change in thymus weight vs vehicle” value (dogs; end of treatment period) was -15 to -24%, the NOAEL at 91 d ([3]; 91-d repeated oral) was over 65 mg/kg/day and the NOAEL at 91 day ([3]; oral, 91-day, highest dose tested) was 65 mg/kg/day.
